Test results: ChEMBL document CHEMBL3507680, “University of Dundee, Gates Library screen for HepG2 cell viability”

Experiment: Human HepG2 cell viability assay in 384 well format
Type: toxicity, cell-based
Parameters: dose 125 nL, time 70.5 hour; concentration not given beside the values
Conditions: HepG2 cells, read-out: Inhibition

SMILES	cytotoxicity at 70.5 h [%]
COc1ccccc1OCC(=O)NCC(C)(O)C1CC1 (stereo unspecified)	-15.3
O=S(=O)(NCC(O)c1cccs1)c1ccccc1Cl (stereo unspecified)	11
COC1CCN(C(=O)CCn2ccc(=O)[nH]c2=O)CC1	8.52
Cc1cc(C)n(CC(=O)NCc2ccccn2)n1	-10.7
COc1ccc(F)cc1S(=O)(=O)N1CCC(OC)CC1	-2.88
CC(=O)c1cccc(NC(=O)Cn2cnc(-c3cccs3)cc2=O)c1	-1.2
O=C(NCC1(CO)CC1)c1ccccc1Cl	-14.1
O=C(NCC1(CO)CC1)c1ccccc1C(F)(F)F	-9.3
COc1nn(C)cc1C(=O)NCC(=O)Nc1cccnc1	-10.6
O=S(=O)(Cc1ccc(F)cc1)N1CCN(CC(O)C2CC2)CC1 (stereo unspecified)	-1.75
COc1ncccc1C(=O)N1CC(c2nc(-c3ccccn3)no2)C1	19.5
Fc1cccc(CNCC2Cn3nncc3CO2)c1 (stereo unspecified)	-7.02
O=C(c1cocn1)N1CCC2(CC1)CC(OCC1CC1)CO2 (stereo unspecified)	-8.99
CN(Cc1ccncc1)C1CC2(CCN(C(=O)c3ccnnc3)CC2)C1	-9.02
CCN1CCC2(CC1)CN(C(C)=O)c1ccc(C)cc12	-7.76
CN(Cc1cccnc1)C1CC2(CCN(C(=O)c3cnccn3)CC2)C1	-7.42
Cc1cc(C(=O)N2CC[C@@H]3CO[C@@H](CN4CCCC4)[C@@H]3C2)no1	-7.99
CCS(=O)(=O)N1CCN(C(=O)C(C)C)CC2(CC(=O)N(C)C2)C1 (stereo unspecified)	-5.47
Cc1nc(CNCC2COCc3c(-c4ccoc4)nnn3C2)cs1 (stereo unspecified)	-6.23
CS(=O)(=O)N1C[C@@H]2COC[C@@H](CC(=O)N3CCCO3)[C@@H]2C1	-8.58
COc1nn(C)c2c1CCCN(S(=O)(=O)c1cccs1)C2	12.6
CN1C[C@@H]2CN(C(=O)C3CCOC3)C[C@@H]2C1=O (stereo partly specified)	9.81
O=C(c1ccoc1)N1CCC2(CC1)COC(COCc1ccccn1)C2 (stereo unspecified)	10.2
CN(C)C(=O)N1CC2(CCN(S(C)(=O)=O)CC2)c2ccccc21	-1.58
O=C(Cc1ccsc1)N1CCC2(CCCN(CC3CCOCC3)C2)C1 (stereo unspecified)	1.53
CN1C[C@@H]2CN(C(=O)C3CC=CC3)C[C@@H]2C1=O	-5.58

SMILES	cytotoxicity at 70.5 h [%]
COCCN1CCC2(COCc3c(C)nc(N(C)C)nc32)C1 (stereo unspecified)	-2.27
CN1CCN(Cc2cn3c(n2)CN(CC2CC2)CC3)CC1	-2.8
COc1cccc(S(=O)(=O)N2CCCc3c(OC)nn(C)c3C2)c1	-5.16
CS(=O)(=O)N1Cc2nccn2CC(CN2CCCC2)C1 (stereo unspecified)	-3.59
CN(C)C(=O)COCc1ncn2c1CN(c1ncc(F)cn1)CCC2	9.71
Cc1cccc(N2CC[C@@H]3[C@@H](CO[C@H]3CNS(C)(=O)=O)C2)n1	10.6
CC(C)C(=O)N1CCCC12CCCN(C(=O)c1ccno1)C2 (stereo unspecified)	13.3
Cc1noc([C@@H]2CCO[C@@H]3CCN(C(=O)Cc4ccsc4)C[C@@H]32)n1	11.3
Cc1ccc(N2CC[C@@H]3CN(Cc4c[nH]cn4)C[C@@H]3C2)nn1	11
CN(C)C(=O)N1CCN(C(=O)c2cccc(Cl)c2)CC2(CNC(=O)C2)C1 (stereo unspecified)	-4.76
Cc1nnc([C@@H]2CCO[C@@H]3CCN(C(=O)Cc4ccsc4)C[C@@H]32)o1	-5.87
Cc1ccccc1CNC(=O)N1C[C@H]2C[C@H](C(=O)N3CCCC3)[C@@H](C1)O2	-3.56
Cc1ccccc1CNC(=O)N1C[C@H]2C[C@H](C(=O)N(C)C)[C@@H](C1)O2	-5.69
O=C(C[C@H]1[C@H]2CN(C(=O)Cc3ccccn3)C[C@@H]12)Nc1cccnc1	-1.03
CS(=O)(=O)N1CCN(C(=O)c2cccc(Cl)c2)CC2(CNC(=O)C2)C1 (stereo unspecified)	-0.473
CC(C)C(=O)N1CCc2nc(C(=O)Nc3cccnc3)sc2CC1	-2.65
COCC(=O)N1CCc2nc(C(=O)Nc3cccnc3)sc2CC1	-2.18
O=C(Nc1ccccc1F)C1=NOC2(CCNCC2)C1	-2.62
O=C(Nc1ccccc1)C1=NOC2(CCNCC2)C1	-6.36
COCCN1CCC12CCN(C(=O)Cc1cccs1)C2 (stereo unspecified)	-7.8
Cc1cc(CN2C[C@@H]3COC[C@]3(COCc3csc(C)n3)C2)no1	2.9
Cc1ccnc(OC[C@@]23CCO[C@@H]2CCN(C2CCC2)C3)n1	4.5
Cc1ccnc(OC[C@@]23CCO[C@@H]2CCN(c2ncccn2)C3)n1	5.78
CCS(=O)(=O)NC[C@]12COC[C@H]1CN(Cc1ccsc1)C2	7.84
Cn1cccc1C(=O)N1CCC2(CCCN2c2ncccn2)CC1	-13.8
CC(C)CN1CC[C@@H]2[C@@H]1CCN2S(=O)(=O)c1cn(C)cn1	-10.9

SMILES	cytotoxicity at 70.5 h [%]
COCCN1CCC2(CC1)CN(C(C)=O)c1ccc(C)cc12	4.91
Cc1ncnc2c1CCN(Cc1nccs1)CC2	-5.22
Cc1ccc(N2CCC3(CC2)CNC(=O)CO3)nn1	-4.26
Cc1nc(COC[C@@]23CCC[C@@H]2CN(Cc2nccs2)C3)cs1	-7.37
CS(=O)(=O)NC[C@]12COC[C@H]1CN(CCc1ccccc1)C2	-8.06
CN1CCCCC12CCN(C(=O)c1cccn1C)CC2	-7.36
O=C1COC2(CCN(c3ncccn3)CC2)CN1	-1.8
CCn1nc(C)cc1C(=O)N1CC[C@H](OC)[C@H]2CN(CC3CC3)C[C@H]21	7.23
Cc1nc(N2CCOCC2)nc2c1COCC21CCN(CC2CC2)C1 (stereo unspecified)	8.58
CS(=O)(=O)N1CCC2(CCCN(Cc3ccccn3)C2)CC1	10.3
CN(C)C(=O)COCc1nn(C)c2c1CCN(Cc1ccco1)C2	-5.57
c1cnc(NC[C@@H]2CCC[C@@H]3CN(Cc4csnn4)C[C@@H]32)nc1	-9.2
Fc1ccccc1CN1CCCC2(CCN(c3ncccn3)CC2)C1	-3.46
Cc1nc([C@H]2C[C@@H]3CCN(Cc4scnc4C)C[C@H]3O2)no1	-5.9
Cn1nc(Cn2cccn2)c2c1CN(C1CCOC1)C2 (stereo unspecified)	-6.25
Cc1ccc(N2CC[C@@H]3[C@@H]2CCN3C(=O)c2cscn2)nn1	-4.17
CCS(=O)(=O)NC[C@]12COC[C@H]1CN(Cc1cccnc1)C2	7.34
Cn1nc(COc2cccnc2)c2c1CCN(Cc1ccco1)C2	4.18
Cc1ccc(CN2CCCC3(CCN(Cc4ccoc4)CC3)C2)cc1	15.4
CN(C)C[C@@H]1OC[C@H]2CN(Cc3ccoc3)CC[C@H]21	-0.512
CN(Cc1ccncc1)C1CC2(CCN(c3ncc(F)cn3)CC2)C1	2.52
CN(Cc1cccnc1)C1CC2(CCN(c3ncc(F)cn3)CC2)C1	-5.89
Cc1cnc(N2CCC3(CC2)CC(N(C)Cc2ccncc2)C3)nc1	-5.66
Fc1cnc(N2CC[C@@H]3CN(Cc4ccncc4)CCO[C@@H]3C2)nc1	7.83
